EC50 and EC90 data for four molecules are collected here from patent US20040043380A1, “T cell line and use thereof” (priority 2000, published 2004).

As usually defined, the EC50 is the midpoint of the concentration-response curve. By EC90 is commonly meant the point of the concentration-response curve where the effect stands at 90%.

The assay relates to HIV-1 BaL strain. The assay is described as follows: Anti-HIV-1 activity: alkaline phosphatase reporter in MOLT-4/CCR5/LTR-SEAP cells infected with HIV-1 BaL strain. Conditions: for EC50: read-out: EC50 (activity of inhibiting viral growth by 50%); for EC90: read-out: EC90 (activity of inhibiting viral growth by 90%). Type of assay: cell-based. As to the method:
The alkaline phosphatase activity was measured by using Great EscAPe SEAP Detection Kit manufactured by Clontech. Fifty microliters of a diluent was added to 15 μl of the culture supernatant and incubated at 65° C. for 30 minutes. The reaction solution was cooled to room temperature, and then 50 μl of the reaction solution was transferred to a white plate, and 50 μl of an assay buffer was added thereto and incubated at room temperature for 5 minutes. Fifty microliters of a luminescence substrate was added thereto, incubated at room temperature for 10 minutes, and measured for chemiluminescence by a luminometer.
A mixture of 2×10^4of MOLT-4/CCR5/LTR-SEAP cells, 1000 CCID50 (cell culture infective dose 50%) of the virus and a test compound (Table 1) at various concentrations was cultured at 37° C. in 5% CO2 gas for 5 days. A quarter of the culture was subcultured for 5 days. On the tenth day after the infection, the culture supernatant was recovered, and the alkaline phosphatase activity was measured. The anti-HIV-1 activity (the inhibition rate) of a test compound was calculated from the following formula:
Inhibition rate (%)=(1−(chemiluminescence^1/chemiluminescence^2))×100
Chemiluminescence^1=chemiluminescence with addition of a test compound (ii)−chemiluminescence without viral infection (iii).
Chemiluminescence^2=chemiluminescence without addition of a test compound (i)−chemiluminescence without viral infection (iii).

[1] abbreviates: Human immunodeficiency virus 1, BAL.
Where [2] appears, read: MOLT-4/CCR5/LTR-SEAP cells, 1000 CCID50 HIV-1 BaL strain, alkaline phosphatase activity in culture supernatant on tenth day after infection.

Where two headings read alike, the source gives them in different places.

For `Cc1cn([C@H]2C=C[C@@H](CO)O2)c(=O)[nH]c1=O` [Compound 1, 2′,3′-didehydro-3′-deoxythymidine], under setting [1], the EC50 was 16 nM and the EC90 turned out to be 260 nM.
With `Cc1ccc(-c2ccc3c(c2)C=C(C(=O)Nc2ccc(C[N+](C)(C)C4CCOCC4)cc2)CCC3)cc1` [Compound 4, N,N-dimethyl-N-(4-(((2-(4-methylphenyl)-6,7-dihydro-5H-benzocyclohepten-8-yl)carbonyl)-N-(4-tetrahydropyranyl)ammonium chloride], under setting [2], the EC50 was found to be 21 nM and the EC90 was determined as 680 nM.
`Cc1c(O)cccc1C(=O)N[C@@H](CSc1ccccc1)[C@H](O)CN1C[C@H]2CCCC[C@H]2C[C@H]1C(=O)NC(C)(C)C` [Compound 3, (-)-(3S,4aS,8aS)-N-tert-butyl-2-[(2R,3R)-2-hydroxy-3-(3-hydroxy-2-methylbenzoylamino)-4-(phenylthio)butyl]decahydroisoquinoline-3-carboxamide monomethanesulfonate]: under setting [1], the EC50 amounted to 0.67 nM and the EC90 came to 170 nM.
For the molecule `Cc1ccnc2c1NC(=O)c1cccnc1N2C1CC1` [Compound 2, 11-cyclopropyl-5,11-dihydro-4-methyl-6H-dipyrido[3,2-b:2′,3′-e] [1,4]diazepin-6-one], under setting [1], the EC90 came out at 350 nM. In addition, for the setting “Human immunodeficiency virus 1, MOLT-4/CCR5/LTR-SEAP cells, 1000 CCID50 HIV-1 BaL strain, alkaline phosphatase activity in culture supernatant on tenth day after infection”, the EC50 was 40 nM.
